Measured values taken from publication PMC10600239, “Selective MCL-1 inhibitor ABBV-467 is efficacious in tumor models but is associated with cardiac troponin increases in patients” (Communications Medicine, 2023).
Where “and” joins values, the source holds several entries; their conditions need not be identical. Equal values may be shown once. Read-outs that look alike come from different tables or passages of the source.

Assays:
[1] = system: DLD-1 cells; test: In vitro cell viability assay (CellTiter-Glo); assay type: cell-based, human; details: for EC50: Homo sapiens
Procedure: (§1) All cell lines were grown and treated in RPMI 1640 or Dulbecco’s modified Eagle medium (Sigma, St. Louis, MO) supplemented with 10% fetal bovine serum (Gibco) or 10% human serum (Sigma) and maintained in a humidified incubator at 5% CO2 and 37 °C. DLD-1, MV4-11, NCI-H929 (all ATCC, Manassas, VA, USA) and AMO-1 (DSMZ, Braunschweig, Germany) cells were plated 4000 cells per well in 384-well tissue culture plates and treated with compounds of interest for 24 h at 37 °C, 5% CO2 humidified incubator. Each concentration was tested in duplicate at least 3 separate times. Adherent cells were allowed to adhere overnight prior to treatment. Alternatively, AMO-1 or NCI-H929 cells were treated with ABBV-467 for the indicated contact times (1–24 h) at 37 °C in a 5% CO2 humidified incubator and washed 3 times with compound-free media prior to incubation for the remainder of a 24-h treatment period. Cell viability was subsequently determined using CellTiter-Glo (Promega, Madison, WI, USA) according to the manufacturer’s instructions.
(§2) For in vitro viability assays, mean EC50 and EC90 values were determined from the resulting dose-response curves from at least 3 independent experiments, and depict the mean ± standard error of the mean.

[2] = system: MV4-11 cells; test: In vitro cell viability assay (CellTiter-Glo); assay type: cell-based, human
Procedure: as §1, §2

[3] = Phase 1 first-in-human study (NCT04178902): pharmacokinetics; assay type: in vivo
Excerpt: Other eligibility criteria included: Eastern Cooperative Oncology Group performance status ≤2, measurable disease as defined by International Myeloma Working Group (IMWG) consensus criteria, an echocardiogram with an ejection fraction ≥50%, and adequate hematologic, hepatic, and renal function. […] Safety evaluations included, but were not limited to, adverse event (AE) monitoring, physical examinations, vital sign measurements, electrocardiogram (ECG), cardiac enzyme monitoring, and clinical laboratory testing (hematology and chemistry) as a measure of safety and tolerability for the entire study duration. Parameters used to determine PK included maximum observed plasma concentration (Cmax), terminal elimination half-life (t1/2), area under the plasma concentration-time curve (AUC) from time 0 to time of last measurable concentration (AUCt), AUC from time 0 to infinity (AUC0-∞), and clearance using non-compartmental methods. […] Preliminary efficacy endpoints were overall response rate (ORR), clinical benefit rate (CBR), and duration of response (DOR) as evaluated per adapted IMWG[36] criteria for MM and per adapted International Working Group (IWG)[37] and European Leukemia Net (ELN)[38] criteria for AML. […]

[4] = Cycle 1 day 1, dose level 0.32 mg/kg (only half of this dose given), N=2, individual values
[5] = Cycle 1 day 15, 0.32 mg/kg, N=2, individual values
[6] = Cycle 1 day 15, 0.53 mg/kg, N=2, individual values

Cc1c(Cl)c2c(Cl)c(C)c1-c1c(-c3ccc(F)cc3)sc3ncnc(c13)O[C@@H](C(=O)O)Cc1cc(ccc1OCc1ccnc(-c3ccc(OC[C@H]4COCCO4)cc3)n1)OC[C@@H](CN1CCN(C)CC1)O2 [ABBV-467]
activity in DLD-1 [1]: inactive
EC50 ([1]; DLD-1, read-out: DLD-1 EC50 (nM), 10% FBS, 24 h continuous treatment): > 10000 nM
EC50 ([1]; DLD-1, arithmetic mean, read-out: Arithmetic Mean EC50): > 10000 nM
EC50 ([1]; DLD-1, individual determinations, read-out: Individual EC50): > 10000 nM
EC50 ([2]; Homo sapiens, MV4-11, MV4-11, arithmetic mean, read-out: Arithmetic Mean EC50 µM): 0.00391 µM
EC50 ([2]; Homo sapiens, MV4-11, MV4-11, individual determinations, read-out: Individual EC50): 0.00403 µM
EC50 ([2]; MV4-11, individual determinations, read-out: Individual EC50): 0.00422 µM and 0.00347 µM
CONC_NGML ([3]; Cycle 1 Day 1, DOSE_MGKG 0.08, cohort 1, PKTIME 0.333333): 0.157 µg/mL and 0.146 µg/mL
CONC_NGML ([3]; Cycle 1 Day 1, DOSE_MGKG 0.08, cohort 1, PKTIME 0.5): 0.198 µg/mL and 0.162 µg/mL
CONC_NGML ([3]; Cycle 1 Day 1, DOSE_MGKG 0.16, cohort 2, PKTIME 0.5): 0.344 µg/mL
CONC_NGML ([3]; Cycle 1 Day 1, DOSE_MGKG 0.16, cohort 2, PKTIME 1): 0.0219 µg/mL
CONC_NGML ([3]; Cycle 1 Day 1, DOSE_MGKG 0.16, cohort 2, PKTIME 1.5): 0.017 µg/mL
CONC_NGML ([3]; Cycle 1 Day 1, DOSE_MGKG 0.16, cohort 2, PKTIME 2.5): 0.00662 µg/mL
CONC_NGML ([3]; Cycle 1 Day 1, DOSE_MGKG 0.265, cohort 3, PKTIME 0.333333): 0.655 µg/mL and 0.47 µg/mL
CONC_NGML ([3]; Cycle 1 Day 1, DOSE_MGKG 0.265, cohort 3, PKTIME 0.5): 0.708 µg/mL and 0.613 µg/mL
CONC_NGML ([3]; Cycle 1 Day 1, DOSE_MGKG 0.265, cohort 3, PKTIME 1.5): 0.0265 µg/mL and 0.0266 µg/mL
CONC_NGML ([3]; Cycle 1 Day 1, DOSE_MGKG 0.265, cohort 3, PKTIME 2.5): 0.00681 µg/mL and 0.0111 µg/mL
CONC_NGML ([3]; Cycle 1 Day 15, DOSE_MGKG 0.16, cohort 1, PKTIME 0.333333): 0.297 µg/mL and 0.479 µg/mL
CONC_NGML ([3]; Cycle 1 Day 15, DOSE_MGKG 0.16, cohort 1, PKTIME 1): 0.0468 µg/mL and 0.0446 µg/mL
CONC_NGML ([3]; Cycle 1 Day 15, DOSE_MGKG 0.16, cohort 1, PKTIME 1.5): 0.0146 µg/mL and 0.0101 µg/mL
CONC_NGML ([3]; Cycle 1 Day 15, DOSE_MGKG 0.32, cohort 2, PKTIME 0.333333): 0.529 µg/mL
CONC_NGML ([3]; Cycle 1 Day 15, DOSE_MGKG 0.53, cohort 3, PKTIME 0.166667): 0.94 µg/mL
CONC_NGML ([3]; Cycle 1 Day 15, DOSE_MGKG 0.53, cohort 3, PKTIME 0.333333): 1.43 µg/mL
CONC_NGML ([3]; Cycle 1 Day 15, DOSE_MGKG 0.53, cohort 3, PKTIME 0.5): 1.51 µg/mL
CONC_NGML ([3]; Cycle 1 Day 15, DOSE_MGKG 0.53, cohort 3, PKTIME 1.5): 0.0606 µg/mL
CONC_NGML ([3]; Cycle 1 Day 15, DOSE_MGKG 0.53, cohort 3, PKTIME 2.5): 0.0263 µg/mL
CONC_NGML ([3]; Cycle 1 Day 15, DOSE_MGKG 0.53, cohort 3, PKTIME 4.5): 0.00814 µg/mL
AUCinf [3, 4]: 0.309 µg·h/mL
AUCt [3, 4]: 0.306 µg·h/mL
CL [3, 4]: 0.517 L/h/kg
Cmax [3, 4]: 0.344 µg/mL
t1/2 [3, 4]: 34.4 min
AUCinf [3, 5]: 0.94 µg·h/mL and 0.35 µg·h/mL
AUCt [3, 5]: 0.346 µg·h/mL and 0.933 µg·h/mL
CL [3, 5]: 0.34 L/h/kg and 0.914 L/h/kg
Cmax [3, 5]: 1.72 µg/mL and 0.646 µg/mL
Tmax [3, 5]: 45.0 min
t1/2 [3, 5]: 23.0 min and 54.3 min
AUCinf [3, 6]: 1.29 µg·h/mL
AUCt [3, 6]: 1.28 µg·h/mL
CL [3, 6]: 0.41 L/h/kg
Cmax [3, 6]: 1.86 µg/mL
t1/2 [3, 6]: 64.1 min
pharmacokinetics ([3]; human patients at the doses studied): linear pharmacokinetics
concentration at 0 h ([3]; human, in vivo, 0.08 mg/kg, Cycle 1 Day 1, DOSE_MGKG 0.08, cohort 1, PKTIME 0, read-out: CONC_NGML): 0 µg/mL
concentration at 20 min ([3]; human, in vivo, 0.08 mg/kg, Cycle 1 Day 1, DOSE_MGKG 0.08, cohort 1, PKTIME 0.333333, read-out: CONC_NGML): 0.132 µg/mL
